Experiment [1] is described as follows: C. albicans growth with fluconazole, confirmation, fluorescence, retest (AID 2467). Type of experiment: functional, cell-based.
For a further experiment, the system named is INS1. As to the kind of experiment: beta cell apoptosis inhibitors, cytokine rescue, dose response, luminescence, retest (AID 449756).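 Also: cell death triggered by IL-1 beta plus TNF-alpha plus IFN-gamma mixture; protective hits raise ATP signal compared with cytokine alone wells.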 Type of experiment: functional, cell-based. The conditions noted are these: Rattus norvegicus.
Experiment [2] in a line: NIH-3T3 fibroblast cytotoxicity, dose response, cytotoxicity control, cell-based, fluorescence, Alamar Blue, secondary assay (AID 2327).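 Also: NIH-3T3 mouse fibroblasts cultured with fluconazole at 8 µg/mL.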 Type of experiment: functional. For orientation: Alamar Blue is a resazurin reagent that responds to reducing activity.
Experiment [3] has as its target T1, Microphthalmia-associated transcription factor (Homo sapiens, UniProt O75030).
T1 sequence (O75030 whole entry): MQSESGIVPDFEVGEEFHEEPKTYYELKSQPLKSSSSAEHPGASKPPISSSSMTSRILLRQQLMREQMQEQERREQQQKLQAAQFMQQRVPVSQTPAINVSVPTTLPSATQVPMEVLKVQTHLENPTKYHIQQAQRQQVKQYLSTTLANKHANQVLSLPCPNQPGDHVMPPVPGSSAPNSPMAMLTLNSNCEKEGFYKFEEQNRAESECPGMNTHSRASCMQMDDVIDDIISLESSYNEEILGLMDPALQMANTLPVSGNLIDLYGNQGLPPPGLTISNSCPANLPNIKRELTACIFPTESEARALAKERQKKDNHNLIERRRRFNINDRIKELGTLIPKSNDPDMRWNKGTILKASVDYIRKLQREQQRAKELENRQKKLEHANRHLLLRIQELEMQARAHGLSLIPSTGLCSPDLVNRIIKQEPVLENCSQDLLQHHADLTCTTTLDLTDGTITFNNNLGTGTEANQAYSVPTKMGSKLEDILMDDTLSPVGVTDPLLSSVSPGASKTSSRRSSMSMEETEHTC
Kind of experiment: TRPM1 promoter luciferase signal decrease, dose response, MITF inhibitor project, cell-based, SK-MEL-5, cherry-picked, set 3 (AID 493073).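 Also: SK-MEL-5 melanoma cells with luciferase driven by the MITF target TRPM1 promoter.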 Type of experiment: functional.

For a further experiment, the target named is Melanocortin receptor 4 (Homo sapiens, UniProt P32245). Type of experiment: functional, cell-based.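 Also: Cell-based assay with luminescence read-out, confirmatory dose-response testing for agonist activity of biased ligands at MC4R; human U2OS cells with tagged receptor and beta-arrestin; potency of agonists that increase receptor coupling to beta-arrestin.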
In experiment [4] the target is 26S proteasome non-ATPase regulatory subunit 14 (Homo sapiens, UniProt O00487). Kind of experiment: inhibition of proteasome subunit RPN11 – biochemical, fluorescence polarization, uHTS hits, confirmation (AID 602368). Type of experiment: functional. (In general: In fluorescence polarisation assays a small probe gives low polarisation when free and higher when bound to something large.)

The target of experiment [5] is 72 kDa type IV collagenase (Homo sapiens, UniProt P08253). As to the kind of experiment: Dose Response validation of uHTS RPN11 inhibitor hits using a MMP-2 Fluorescence assay. Type of experiment: functional.
A further experiment addresses Prothrombin (Bos taurus, UniProt P00735). Kind of experiment: thrombin inhibition, dose response, biochemical, fluorescence polarization, uHTS hits (AID 602369). Type of experiment: functional.
The target in experiment [6] is T2, RNA-binding protein pos-1 (Caenorhabditis elegans, UniProt G5EF15).
T2 sequence (G5EF15 whole entry): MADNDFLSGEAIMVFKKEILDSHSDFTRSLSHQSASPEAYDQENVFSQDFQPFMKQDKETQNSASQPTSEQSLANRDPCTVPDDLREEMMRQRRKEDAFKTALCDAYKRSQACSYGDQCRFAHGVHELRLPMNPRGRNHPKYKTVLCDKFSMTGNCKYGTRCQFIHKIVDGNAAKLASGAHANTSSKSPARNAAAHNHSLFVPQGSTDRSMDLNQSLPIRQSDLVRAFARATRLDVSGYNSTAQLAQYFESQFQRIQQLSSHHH
As to the kind of experiment: inhibitors of POS-1/mex-3 RNA binding, dose response, biochemical, fluorescence polarization (AID 1964).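 Also: purified POS-1 fused to maltose binding protein made in E. coli; potency of compounds blocking POS-1 binding to fluorescent RNA.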

Experiment [7] addresses T3, Endoribonuclease toxin MazF (Escherichia coli K-12, UniProt P0AE70).
T3 sequence (P0AE70 whole entry): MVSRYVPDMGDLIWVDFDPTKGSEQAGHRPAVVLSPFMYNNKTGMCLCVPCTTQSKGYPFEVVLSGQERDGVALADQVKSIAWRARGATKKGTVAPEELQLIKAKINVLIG
As to the kind of experiment: fluorescent RNA oligo signal without MazF, dose response, counter-screen for MazEF activator project, biochemical, fluorescence, single-stranded RNase substrate (AID 588502). Type of experiment: functional. (In general: Counterscreens check selectivity or assay interference.)

Experiment [8] addresses T3, Endoribonuclease toxin MazF. Kind of experiment: MazF toxin RNase activators, dose response, biochemical, fluorescence, single-stranded RNA substrate, uHTS hits (AID 588481). Type of experiment: functional.
Experiment [9] addresses T4, Zinc finger protein mex-5 (Caenorhabditis elegans, UniProt Q9XUB2).
T4 sequence (Q9XUB2 whole entry): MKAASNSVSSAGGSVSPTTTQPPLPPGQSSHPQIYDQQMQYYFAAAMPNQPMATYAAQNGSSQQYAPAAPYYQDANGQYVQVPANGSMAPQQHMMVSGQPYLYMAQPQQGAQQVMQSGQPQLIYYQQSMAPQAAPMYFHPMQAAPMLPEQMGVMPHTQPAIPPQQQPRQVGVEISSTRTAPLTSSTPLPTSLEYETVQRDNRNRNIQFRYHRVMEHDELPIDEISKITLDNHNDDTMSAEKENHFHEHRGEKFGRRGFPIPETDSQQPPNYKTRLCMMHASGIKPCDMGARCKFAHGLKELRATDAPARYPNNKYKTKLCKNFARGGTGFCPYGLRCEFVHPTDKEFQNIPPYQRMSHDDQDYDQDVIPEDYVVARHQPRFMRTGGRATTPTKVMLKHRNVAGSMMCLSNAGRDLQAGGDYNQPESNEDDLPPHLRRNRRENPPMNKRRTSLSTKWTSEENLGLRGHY
Kind of experiment: MEX-5/TCR-2 RNA interaction inhibitors, dose response, biochemical, C. elegans, fluorescence polarization (AID 1960).

Experiment [10] has as its target T5, Mannose-6-phosphate isomerase (Homo sapiens, UniProt P34949).
T5 sequence (P34949 whole entry): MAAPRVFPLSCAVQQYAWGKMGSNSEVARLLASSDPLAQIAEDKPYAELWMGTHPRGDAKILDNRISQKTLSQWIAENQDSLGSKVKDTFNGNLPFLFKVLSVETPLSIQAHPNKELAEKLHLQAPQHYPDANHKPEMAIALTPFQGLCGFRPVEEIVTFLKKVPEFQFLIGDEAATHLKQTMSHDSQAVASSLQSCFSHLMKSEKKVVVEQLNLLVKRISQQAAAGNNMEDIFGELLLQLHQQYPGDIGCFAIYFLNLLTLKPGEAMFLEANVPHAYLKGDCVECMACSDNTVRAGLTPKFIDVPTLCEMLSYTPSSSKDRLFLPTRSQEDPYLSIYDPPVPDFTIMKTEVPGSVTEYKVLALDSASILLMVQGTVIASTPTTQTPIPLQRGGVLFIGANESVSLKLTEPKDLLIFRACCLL
Kind of experiment: human PMI inhibitors, high substrate, primary screen, biochemical, fluorescence intensity, high mannose 6-phosphate (AID 1220).

For a further experiment, the target named is T6, Protein skinhead-1 (Caenorhabditis elegans, UniProt P34707).
T6 sequence (P34707 whole entry): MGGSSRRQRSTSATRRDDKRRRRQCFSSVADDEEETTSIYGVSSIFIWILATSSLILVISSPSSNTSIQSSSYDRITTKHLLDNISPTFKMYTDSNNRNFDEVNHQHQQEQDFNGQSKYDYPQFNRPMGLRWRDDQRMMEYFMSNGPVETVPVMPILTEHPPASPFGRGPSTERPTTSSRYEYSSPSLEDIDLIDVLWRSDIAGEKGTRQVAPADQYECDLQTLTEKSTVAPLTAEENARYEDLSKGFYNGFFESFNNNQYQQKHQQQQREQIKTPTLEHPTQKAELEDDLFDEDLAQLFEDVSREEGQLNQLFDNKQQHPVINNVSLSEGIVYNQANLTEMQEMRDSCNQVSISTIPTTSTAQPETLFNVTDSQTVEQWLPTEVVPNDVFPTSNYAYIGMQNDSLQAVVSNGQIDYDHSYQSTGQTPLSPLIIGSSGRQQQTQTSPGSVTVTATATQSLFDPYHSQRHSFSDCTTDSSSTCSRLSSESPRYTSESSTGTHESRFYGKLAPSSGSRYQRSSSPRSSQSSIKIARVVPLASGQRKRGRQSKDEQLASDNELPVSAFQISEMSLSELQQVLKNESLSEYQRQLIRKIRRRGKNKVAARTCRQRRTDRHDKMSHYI
Type of experiment: functional.

In experiment [11] the target is T7, Rac GTPase-activating protein 1 (Homo sapiens, UniProt Q9H0H5).
T7 sequence (Q9H0H5 whole entry): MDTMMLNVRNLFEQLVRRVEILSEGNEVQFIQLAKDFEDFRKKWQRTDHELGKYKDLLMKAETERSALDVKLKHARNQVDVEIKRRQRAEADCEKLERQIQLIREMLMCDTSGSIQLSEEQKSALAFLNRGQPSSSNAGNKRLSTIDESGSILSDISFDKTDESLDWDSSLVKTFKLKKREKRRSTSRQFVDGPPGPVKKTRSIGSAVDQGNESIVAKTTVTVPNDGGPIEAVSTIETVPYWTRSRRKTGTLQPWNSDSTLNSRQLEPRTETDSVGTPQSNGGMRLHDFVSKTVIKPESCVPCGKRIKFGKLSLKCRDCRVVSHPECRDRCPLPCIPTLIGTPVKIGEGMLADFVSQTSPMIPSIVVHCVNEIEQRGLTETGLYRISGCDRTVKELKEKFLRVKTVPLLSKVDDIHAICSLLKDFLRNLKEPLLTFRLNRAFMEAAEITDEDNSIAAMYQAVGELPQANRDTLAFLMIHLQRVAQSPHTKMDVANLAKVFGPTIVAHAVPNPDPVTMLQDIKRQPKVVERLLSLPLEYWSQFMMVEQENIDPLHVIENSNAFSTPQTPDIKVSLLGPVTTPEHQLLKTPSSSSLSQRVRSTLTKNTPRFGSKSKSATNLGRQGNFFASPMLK
As to the kind of experiment: MgcRacGAP GTPase-activating activity inhibitors, confirmation, biochemical, ADP Hunter fluorescence, primary and confirmatory (AID 624330). Type of experiment: functional.

Experiment [12] in a line: HeLa cell cytotoxicity, dose response, cytotoxicity control for MgcRacGAP inhibitor project (AID 624300). Type of experiment: functional.
The next experiment concerns H9c2. As to the kind of experiment: cells. Type of experiment: functional, cell-based. The conditions noted are these: Rattus norvegicus, H9c2, Myocardium.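 Also: confirmatory concentration-response retest of ultra-high-throughput screening hits for modulation of myocardial damage; cell death induced by hydrogen peroxide oxidative stress; compound pretreatment for 60 min then peroxide exposure for 2 h; potency is for protecting the cells against peroxide damage rather than for killing them.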

Experimental findings from ChEMBL document CHEMBL1201862, “PubChem BioAssay data set” (2004) are described below.

Active and inactive are the calls of the source.

Chain of 72 kDa type IV collagenase (P08253 whole entry): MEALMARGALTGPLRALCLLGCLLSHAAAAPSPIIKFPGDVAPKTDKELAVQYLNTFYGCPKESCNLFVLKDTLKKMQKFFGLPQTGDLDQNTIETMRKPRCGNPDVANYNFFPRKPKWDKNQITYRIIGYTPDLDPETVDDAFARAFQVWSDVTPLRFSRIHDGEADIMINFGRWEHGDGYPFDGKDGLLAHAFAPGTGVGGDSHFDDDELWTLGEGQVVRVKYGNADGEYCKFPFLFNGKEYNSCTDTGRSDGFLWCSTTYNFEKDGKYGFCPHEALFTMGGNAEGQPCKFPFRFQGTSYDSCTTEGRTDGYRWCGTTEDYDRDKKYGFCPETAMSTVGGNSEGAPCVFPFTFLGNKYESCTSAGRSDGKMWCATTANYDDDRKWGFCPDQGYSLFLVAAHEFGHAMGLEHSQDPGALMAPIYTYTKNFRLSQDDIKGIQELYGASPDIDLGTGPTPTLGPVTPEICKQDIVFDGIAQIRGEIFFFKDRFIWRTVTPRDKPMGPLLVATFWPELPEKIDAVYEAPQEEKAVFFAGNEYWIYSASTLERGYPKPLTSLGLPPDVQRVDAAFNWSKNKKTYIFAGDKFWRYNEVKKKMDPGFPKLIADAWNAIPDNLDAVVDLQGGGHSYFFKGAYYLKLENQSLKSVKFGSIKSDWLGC
Chain of Melanocortin receptor 4 (P32245 whole entry): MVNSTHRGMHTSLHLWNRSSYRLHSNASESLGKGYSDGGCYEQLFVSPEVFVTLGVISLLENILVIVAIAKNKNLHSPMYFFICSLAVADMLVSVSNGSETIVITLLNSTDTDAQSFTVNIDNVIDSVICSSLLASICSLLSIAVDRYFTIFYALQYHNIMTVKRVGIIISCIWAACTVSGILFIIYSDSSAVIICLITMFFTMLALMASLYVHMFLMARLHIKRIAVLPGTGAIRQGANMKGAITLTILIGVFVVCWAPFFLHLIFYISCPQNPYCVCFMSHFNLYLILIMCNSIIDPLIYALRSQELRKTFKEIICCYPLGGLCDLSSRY
Chain of 26S proteasome non-ATPase regulatory subunit 14 (O00487 whole entry): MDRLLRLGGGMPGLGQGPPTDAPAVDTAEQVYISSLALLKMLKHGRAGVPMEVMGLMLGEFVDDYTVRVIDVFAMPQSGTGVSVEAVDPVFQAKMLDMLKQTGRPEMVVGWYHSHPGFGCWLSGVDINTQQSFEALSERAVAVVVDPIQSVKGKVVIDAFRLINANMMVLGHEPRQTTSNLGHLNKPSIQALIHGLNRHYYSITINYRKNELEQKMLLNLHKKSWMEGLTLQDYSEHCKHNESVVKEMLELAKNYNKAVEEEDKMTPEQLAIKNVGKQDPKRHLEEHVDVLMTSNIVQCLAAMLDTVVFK

On to `CC1CCC(C(C)C)C(OC(=O)C[n+]2cc(-c3ccc(Cl)cc3)n3c2CCCCC3)C1` (configuration not stated), for which the results for the EC50 (in experiment [1]; in experiment [2]; at Melanocortin receptor 4) were 0.459 µM (active), > 160 µM (inactive) and > 9.91 µM (active), respectively. Besides, the half-maximal activity concentration (AC50) is 4.91 µM (active) in the experiment with INS1 and 6.97 µM (active) in [3].

Turning to `C1COCCO1.Cc1cc(C)c2nc(Nc3nc(O)cc(-c4ccccc4)n3)nc(C)c2c1`, on Melanocortin receptor 4, the EC50 was > 89.2 µM (inactive).

With `CCOc1ccc(C(=O)CCC(=O)N2CCN(c3ncccn3)CC2)cc1`, the results for the half-inhibitory concentration (IC50) (in experiment [4]; in [5]; at Prothrombin) were 38.6 µM (active), 83.5 µM (active) and 34.3 µM (active), respectively.

As for `Oc1nc2ccccc2nc1/C=C/c1ccc(F)cc1`, the EC50 was 41.9 µM (inconclusive) in [6], > 99 µM (inactive) in experiment [7], 15.6 µM (active) in experiment [8] and > 300 µM (not active) in experiment [9].

For the molecule `O=C(c1ccc(COc2ccc(Br)cc2)o1)N1N=C(C(F)F)CC1(O)C(F)F` (configuration not stated), the EC50 at Melanocortin receptor 4 was > 89.2 µM (inactive).

On to `COCc1n[nH]c2c1C(c1cc(OC)c(O)c(OC)c1)C(C#N)=C(N)O2` (configuration not stated), for which the EC50 in experiment [7] and in experiment [8] was > 99 µM (inactive) each time. The IC50 in experiment [10] is on record as > 50 µM (not active).

Take `CC(C)Oc1ccc(/C=C(\NC(=O)/C=C/c2ccco2)C(=O)NCCc2nc3ccccc3[nH]2)cc1`: the IC50 was 57.5 µM (active) in [4], > 100 µM (inactive) in experiment [5] and 55.6 µM (active) at Prothrombin.

`COc1ccc(-c2ccc(/C=C3/C(=N)N4C(C)=CSC4=NC3=O)o2)c([N+](=O)[O-])c1`: the EC50 in experiment [7] was 29 µM (inactive); in experiment [8], > 99 µM (inactive). Further, the IC50 at Protein skinhead-1 was > 100 µM (inactive).

Turning to `Cc1ccccc1C(=O)/C=C1/SCC(=O)N1C`, the figures for the IC50 (in [4]; in experiment [5]; on Prothrombin) were 18.9 µM (active), > 100 µM (inactive) and 37.3 µM (active), respectively.

As for `Cc1cccc(NC(=S)NC(=O)C(c2ccccc2)c2ccccc2)n1`, at Melanocortin receptor 4, the EC50 was > 89.2 µM (inactive).

Regarding `CN(C)c1ccc(Sc2ccc3nc(N)nc(N)c3c2)cc1`, the IC50 in experiment [11] was 50.2 µM (active). Moreover, in [12], the cytotoxic concentration (CC50) is 100 µM (active).

As to `COc1ccc(-c2cc(NC(C)=O)c3ncc(-c4ccc(OC)c(OC)c4)n3c2)cc1OC`, in the experiment with H9c2, the IC50 is > 79 µM (inactive). At Melanocortin receptor 4, the EC50 was > 89.2 µM (inactive).

Take `Cc1cccnc1C(c1ccc(F)cc1)N(C)C(=O)C1CCN(CCOc2ccc(Cl)cc2Cl)CC1` (configuration not stated): on Melanocortin receptor 4, the EC50 was > 89.2 µM (inactive).

As a reminder, the EC50 is the concentration that produces a half-maximal response. The AC50 is the concentration at which the activity in the assay is half-maximal. A word on the IC50: it is the concentration needed to halve the response being measured. As a reminder, the CC50 is the concentration giving 50% cytotoxicity.
